The values below come from paper PMC6832696 (Viruses, 2019).

Data set [1] has as its system HSV-2. In words: HSV-2 production in RPE cells, plaque assay on A549-Npro cells. In kind it is cell-based, herpes simplex virus type 2. The conditions noted are these: 0.12 μM obatoclax, 0.04 μM emetine, 0.37 μM niclosamide, 0.37 μM ganciclovir; titrated on A549-Npro cells.
The subject of data set [2] is HSV-2.
Data set [3] can be described thus: in vitro. The note with it: human.
Data set [4] has as its system HSV-2. As to the kind of experiment: microbe, parasite or virus in culture. The note with it: Human alphaherpesvirus 2, RPE, 72 h, read-out: EC50-1 (CTG assay).
The test system of data set [5] is RVFV. In words: microbe, parasite or virus in culture. It is filed as cell-based. The conditions noted are these: Rift Valley fever virus, RPE, 24 h, read-out: EC50-1 (CTG assay).
Data set [6] has as its system FLUAV. As to the kind of experiment: microbe, parasite or virus in culture. In kind it is cell-based. The note with it: Influenza A virus, RPE, 24 h, read-out: EC50-1 (CTG assay).
For data set [7], the system named is EV1. As to the kind of experiment: EV1 production in RPE cells, plaque assay on A549-Npro cells. It is filed as cell-based, echovirus 1. The conditions noted are these: obatoclax 0.37 μM, emetine 0.12 μM, homoharringtonine 0.12 μM; titrated on A549-Npro cells.
Data set [8] relates to EV1.
Data set [9] relates to RVFV-RFP. The note with it: RPE cells, fluorescent microscopy and CTG assay.
For data set [10], the system named is HMPV-GFP.
The test system of data set [11] is FLUAV-GFP.
The test system of data set [12] is EV1. As to the kind of experiment: microbe, parasite or virus in culture. The note with it: Enterovirus B, RPE, 48 h, read-out: EC50-1 (CTG assay).
Data set [13] concerns RVFV-RFP. In words: microbe, parasite or virus in culture. The note with it: Rift Valley fever virus, RPE, 24 h, read-out: EC50-2 (reporter protein expression).
Data set [14] relates to HMPV-GFP. As to the kind of experiment: microbe, parasite or virus in culture. The note with it: human metapneumovirus, RPE, 96 h, read-out: EC50-2 (reporter protein expression).
The subject of data set [15] is FLUAV-GFP. In words: microbe, parasite or virus in culture. The conditions noted are these: Influenza A virus, RPE, 24 h, read-out: EC50-2 (reporter protein expression).
The test system of data set [16] is FLUAV-GFP. In words: microbe, parasite or virus in culture. The conditions noted are these: Influenza A virus, RPE, read-out: Viability of FLUAV-GFP-infected cells (%).
Data set [17] in a line: Drug combination experiment: viability of mock-infected RPE cells (CTG). The conditions noted are these: human.
The subject of data set [18] is HIV-1. The conditions noted are these: HIV-1, TZM-bl cells, 24 h.
Data set [19] deals with HIV-1. In words: microbe, parasite or virus in culture. The conditions noted are these: Human immunodeficiency virus 1, TZM-bl, 24 h, read-out: EC50-2 (reporter protein expression).
A short description of data set [20]: Toxicity in TZM-bl cells, Cell Tox Green (CTxG) assay (CC50). The conditions noted are these: human, mock-infected TZM-bl cells.

The term EC50 denotes the concentration at which the effect is half-maximal. For orientation: viability means a read-out of living cells in per cent, often relative to untreated cells.

Where two headings read alike, the source gives them in different places.

Regarding `Nc1nc(O)c2ncn(COC(CO)CO)c2n1` [Ganciclovir], the “HSV-2 production in RPE cells (plaque assay)” value (from here on “HSV-2 production in RPE cells”) in data set [1] was “lowered the production of HSV-2”. Besides, the “Initial screening: rescue of HSV-2-infected cells” value in data set [2] is reported as “rescued cells from virus-mediated death”. In data set [3], the CC50 was above 30000 nM. For the same compound, the EC50 in data set [4] stood at 40 ± 10 nM.

Turning to `CC[C@H]1CN2CCc3cc(OC)c(OC)cc3[C@@H]2C[C@@H]1C[C@H]1NCCc2cc(OC)c(OC)cc21` [Emetine], the concentration for a half-maximal effect (EC50) in data set [5] was determined as 100 ± 20 nM. The EC50 in data set [6] is 130 ± 50 nM. Besides, the “HSV-2 production in RPE cells” value in [1] is “lowered the production of HSV-2”. Further, the “EV1 production in RPE cells (plaque assay)” value (“EV1 production in RPE cells” below) in [7] is listed as “lowered the production of EV1”. For the same compound, in [2], the “Initial screening: rescue of HSV-2-infected cells” value is listed as “rescued cells from virus-mediated death” and the “SI (CC50/EC50)” value came to 37. In data set [8], the “Initial screening: rescue of EV1-infected cells” value is listed as “rescued cells from virus-mediated death”. In addition, the “RVFV-mediated RFP expression” value in data set [9] is “inhibited RVFV-mediated RFP expression at non-cytotoxic concentrations”. In addition, in [10], the “Initial screening: HMPV-mediated GFP expression” value is given as “lowered GFP expression without detectable cytotoxicity” and the “SI (CC50/EC50)” value turned out to be 10. Further, in data set [11], the “Initial screening: FLUAV-mediated GFP expression” value is “lowered GFP expression without detectable cytotoxicity”. In data set [3], the CC50 was above 30000 nM. For the same compound, in data set [4], the half-maximal effective concentration (EC50) came out at 30 ± 10 nM. In addition, in data set [12], the EC50 turned out to be 120 ± 40 nM. The 50% effective concentration (EC50) in data set [13] amounted to 430 ± 100 nM. Besides, the EC50 in data set [14] is 140 ± 50 nM. In data set [15], the EC50 is 120 ± 30 nM. In [16], the viability at 0.01 µM turned out to be 50%, the viability at 0.02 µM is 51%, the viability at 0.05 µM came out at 66% and the viability at 0.15 µM stood at 68%. For the same compound, the viability at 0.44 µM in data set [16] was 76%. Also, in data set [17], the viability at 24 h, 0.01 μM stood at 72%; the viability at 24 h, 0.02 μM came out at 80%; the viability at 24 h, 0.05 μM amounted to 76%; the viability at 24 h, 0.15 μM came out at 76%. Further, the viability at 24 h, 0.44 μM in data set [17] was found to be 80%.

`COC1=CC(c2cc3ccccc3[nH]2)=N/C1=C\c1[nH]c(C)cc1C` [Obatoclax]: the EC50 in data set [5] is 40 ± 10 nM. Also, the concentration for a half-maximal effect (EC50) in [6] was 40 ± 10 nM. Also, in data set [1], the “HSV-2 production in RPE cells” value is “lowered the production of HSV-2”. In addition, in data set [7], the “EV1 production in RPE cells” value is “lowered the production of EV1”. Further, in [2], the “Initial screening: rescue of HSV-2-infected cells” value is given as “rescued cells from virus-mediated death” and the “SI (CC50/EC50)” value was found to be 12. In [8], the “Initial screening: rescue of EV1-infected cells” value is listed as “rescued cells from virus-mediated death” and the “SI (CC50/EC50)” value is on record as 25. For the same compound, the “RVFV-mediated RFP expression” value in data set [9] is reported as “inhibited RVFV-mediated RFP expression at non-cytotoxic concentrations”. The “Initial screening: HMPV-mediated GFP expression” value in data set [10] is “lowered GFP expression without detectable cytotoxicity”. Moreover, in data set [11], the “Initial screening: FLUAV-mediated GFP expression” value is recorded as “lowered GFP expression without detectable cytotoxicity” and the “SI (CC50/EC50)” value was 31. For the same compound, the EC50 in data set [4] amounted to 100 ± 20 nM. For the same compound, the EC50 in data set [12] is 120 ± 10 nM. Also, in [13], the EC50 turned out to be 320 ± 90 nM. In [14], the EC50 amounted to 120 ± 20 nM. Also, the EC50 in data set [15] was found to be 100 ± 10 nM. Also, in [16], the viability at 0.01 µM turned out to be 60%, the viability at 0.02 µM is 72%, the viability at 0.05 µM turned out to be 80% and the viability at 0.15 µM was determined as 90%. Also, in data set [16], the viability at 0.44 µM was 76%. Besides, in data set [17], the viability at 24 h, 0.01 μM worked out at 81%; the viability at 24 h, 0.02 μM is 77%; the viability at 24 h, 0.05 μM is 78%; the viability at 24 h, 0.15 μM amounted to 81%. In addition, the viability at 24 h, 0.44 μM in data set [17] was 77%.

As for `O=C(Nc1ccc([N+](=O)[O-])cc1Cl)c1cc(Cl)ccc1O` [Niclosamide], in [1], the “HSV-2 production in RPE cells” value is “lowered the production of HSV-2”. In data set [2], the “Initial screening: rescue of HSV-2-infected cells” value is given as “rescued cells from virus-mediated death” and the “SI (CC50/EC50)” value amounted to 3. The CC50 in data set [3] is 1310 ± 20 nM. The EC50 in [4] came out at 430 ± 40 nM.

Consider `Cc1ccc(C(=O)Nc2ccc(S(=O)(=O)O)c3cc(S(=O)(=O)O)cc(S(=O)(=O)O)c23)cc1NC(=O)c1cccc(NC(=O)Nc2cccc(C(=O)Nc3cc(C(=O)Nc4ccc(S(=O)(=O)O)c5cc(S(=O)(=O)O)cc(S(=O)(=O)O)c45)ccc3C)c2)c1` [Suramin], for which the “SI (CC50/EC50)” value in data set [18] and in data set [18] (listed as suramin) was above 375 throughout. Besides, the concentration for a half-maximal effect (EC50) in [19] was 80 ± 30 nM. In data set [20], this compound showed a CC50 at 24 h above 30000 nM.

On to `Cc1c(-c2ccc(-c3ccccc3F)cc2)nc2ccc(F)cc2c1C(=O)O` [Brequinar], for which the “SI (CC50/EC50)” value in data set [18] and in [18] (listed as brequinar) was above 750 in each case. The concentration giving a half-maximal response (EC50) in [19] is 40 ± 10 nM. The compound further had a CC50 at 24 h in data set [20] above 30000 nM.

For `COC(=O)C[C@](O)(CCCC(C)(C)O)C(=O)O[C@@H]1C(OC)=C[C@]23CCCN2CCc2cc4c(cc2[C@H]13)OCO4` [Homoharringtonine], the “EV1 production in RPE cells” value in [7] is recorded as “lowered the production of EV1”. Further, in data set [8], the “Initial screening: rescue of EV1-infected cells” value is “rescued cells from virus-mediated death”. The compound further showed a CC50 in [3] above 30000 nM. Also, the half-maximal effective concentration (EC50) in [12] came to 140 ± 30 nM.
